Source: patent publication US20150315188A1, “COMPOUNDS AND METHODS FOR TREATMENT OF HYPERTENSION” (MEDIVATION TECHNOLOGIES, INC., priority 2012, published 2015)

Key:
[1] = target: T1, Human adrenergic α2A receptor (Homo sapiens, UniProt P08913); assay: β-Arrestin GPCR functional assay, adrenergic α2A (Protocol B); assay type: cell-based; conditions: for IC50: β-arrestin, antagonist vs nor-epinephrine EC80; for inhibition at 0.1 µM: 0.1 μM compound; for inhibition at 0.1 µM / inhibition at 0.3 µM: nor-epinephrine at EC80 (270 nM), read-out: Percentage inhibition, Adrenergic α2A; for inhibition at 0.3 µM: 0.3 μM compound
T1 sequence (P08913 1-465): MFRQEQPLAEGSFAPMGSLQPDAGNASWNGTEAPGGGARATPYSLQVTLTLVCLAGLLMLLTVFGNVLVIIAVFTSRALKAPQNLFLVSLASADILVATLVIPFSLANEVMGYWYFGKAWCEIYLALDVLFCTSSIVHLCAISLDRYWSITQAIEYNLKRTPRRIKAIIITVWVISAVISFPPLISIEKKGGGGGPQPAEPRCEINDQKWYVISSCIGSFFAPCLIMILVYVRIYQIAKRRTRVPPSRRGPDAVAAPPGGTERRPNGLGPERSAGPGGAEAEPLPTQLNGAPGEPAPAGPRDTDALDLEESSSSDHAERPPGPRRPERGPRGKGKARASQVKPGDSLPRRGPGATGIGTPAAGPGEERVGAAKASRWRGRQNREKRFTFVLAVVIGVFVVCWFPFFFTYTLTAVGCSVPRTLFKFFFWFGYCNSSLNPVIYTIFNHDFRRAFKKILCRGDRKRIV
Description: (§1) To evaluate the activity of compounds in β-Arrestin GPCR functional assays, recombinant CHO cell line (DiscoveRX), over expressed with human adrenergic α2A receptor were used. The experiment was done with kit of DiscoveRX as per recommended protocol of the supplier. Cells were harvested from culture flask using cell dissociation solution (CDS) and plated at a density of 12,000 cells/well in CP reagent (supplied with the kit) in a half area 96-well white polystyrene plate. After 24 h incubation at 37° C., compounds at various concentrations in 1% (final) DMSO were charged to the cells for 30 min at 37° C. Active nor-epinephrine (-NE) at its EC80 concentrations (270 nM) were then added to the cells and incubated for another 90 min at 37° C. Detection mix was prepared by mixing of Path Hunter cell assay buffer, Emerald II solution and Galactone star solution in a ratio of 19:5:1 and incubated with the cells for 60 min at RT in the dark. The reading was taken in Envision at luminescence mode. Biochemical assay results are presented as the percent Inhibition in Table B2a, or IC50 values in Table B2b.

[2] = target: T2, Human adrenergic α1B receptor (Homo sapiens, UniProt P35368); assay: β-Arrestin GPCR functional assay, adrenergic α1B (Protocol B); assay type: cell-based; conditions: for IC50: β-arrestin, antagonist vs nor-epinephrine EC80; for inhibition at 0.1 µM: 0.1 μM compound
T2 sequence (P35368 1-520): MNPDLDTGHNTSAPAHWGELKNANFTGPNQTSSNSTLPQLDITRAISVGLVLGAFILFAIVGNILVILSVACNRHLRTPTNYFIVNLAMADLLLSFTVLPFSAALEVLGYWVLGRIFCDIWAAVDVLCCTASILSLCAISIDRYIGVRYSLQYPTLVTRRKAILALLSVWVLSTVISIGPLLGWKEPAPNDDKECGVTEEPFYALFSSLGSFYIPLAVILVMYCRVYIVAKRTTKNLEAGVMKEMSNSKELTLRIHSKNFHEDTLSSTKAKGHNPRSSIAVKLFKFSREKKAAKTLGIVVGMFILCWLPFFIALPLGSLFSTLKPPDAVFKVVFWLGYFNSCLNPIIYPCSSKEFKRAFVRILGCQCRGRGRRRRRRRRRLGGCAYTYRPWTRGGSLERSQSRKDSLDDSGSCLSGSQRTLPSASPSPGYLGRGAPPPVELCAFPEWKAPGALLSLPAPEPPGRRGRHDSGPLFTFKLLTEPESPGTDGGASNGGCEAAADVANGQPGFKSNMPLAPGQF
Description: as §1, with “human adrenergic α1B receptor were” for “human adrenergic α2A receptor were”, “done with a kit of” for “done with kit of”, “EC80 concentrations (50 nM) were” for “EC80 concentrations (270 nM) were”, “by mixing Path Hunter” for “by mixing of Path Hunter”

[3] = target: T3, Human adrenergic α2B receptor (Homo sapiens, UniProt P18089); assay: Radioligand binding, adrenergic α2B (Protocol Group B); design: purchased Milipore (Millipore); conditions: for Percentage inhibition of ligand binding, Adrenergic α2B (10 nM) / inhibition at 0.01 µM: 10 nM compound; for Percentage inhibition of ligand binding, Adrenergic α2B (10 nM) / Percentage inhibition of ligand binding, Adrenergic α2B (30 nM) / Ki / inhibition at 0.01 µM / inhibition at 0.03 µM / inhibition at 0.1 µM: Protocol Group B; for Percentage inhibition of ligand binding, Adrenergic α2B (10 nM): 0.01 µM; for Percentage inhibition of ligand binding, Adrenergic α2B (30 nM) / inhibition at 0.03 µM: 30 nM compound; for Percentage inhibition of ligand binding, Adrenergic α2B (30 nM): 0.03 µM; for Ki: estimated Ki, read-out: Ki α2B; for inhibition at 0.01 µM: read-out: Percentage inhibition of ligand binding, Adrenergic α2B (10 nM); for inhibition at 0.03 µM: read-out: Percentage inhibition of ligand binding, Adrenergic α2B (30 nM); for inhibition at 0.1 µM: 0.1 μM compound, read-out: Percentage inhibition of ligand binding, Adrenergic α2B (0.1 μM)
T3 sequence (P18089 1-450): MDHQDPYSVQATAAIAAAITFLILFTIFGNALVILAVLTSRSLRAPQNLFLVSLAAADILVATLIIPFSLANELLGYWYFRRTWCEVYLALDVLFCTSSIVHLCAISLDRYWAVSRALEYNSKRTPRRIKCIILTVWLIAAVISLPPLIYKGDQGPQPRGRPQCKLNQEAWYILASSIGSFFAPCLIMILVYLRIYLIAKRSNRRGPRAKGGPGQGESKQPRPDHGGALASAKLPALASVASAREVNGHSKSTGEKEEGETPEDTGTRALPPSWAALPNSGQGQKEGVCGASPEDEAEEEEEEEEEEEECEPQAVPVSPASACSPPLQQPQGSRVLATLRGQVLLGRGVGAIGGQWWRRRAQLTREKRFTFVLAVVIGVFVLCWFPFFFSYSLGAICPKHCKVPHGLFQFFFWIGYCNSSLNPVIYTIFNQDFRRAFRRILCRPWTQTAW
Summary of the method: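 Compounds at various concentrations in 1% DMSO were tested on recombinant membranes in Tris-HCl pH 7.4 buffer containing MgCl2, CaCl2 and 0.2% BSA.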

[4] = nor-epinephrine at EC80 (50 nM), read-out: Percentage inhibition, Adrenergic α1B

| Compound | IC50 [1] | IC50 [2] | Ki [3] | inhibition at 0.01 µM [3] | inhibition at 0.03 µM [3] | inhibition at 0.1 µM [3] | other results |
| --- | --- | --- | --- | --- | --- | --- | --- |
| Cc1ccc2c(c1)c1c(n2CC(OCC2CCC2)c2ccncc2)CCN2CCCC12 (single isomer, unassigned) [138b] | 1330 nM | 926 nM | 1.45 nM | – | – | – | Percentage inhibition of ligand binding, Adrenergic α2B (10 nM) [3]: 82%; Percentage inhibition of ligand binding, Adrenergic α2B (30 nM) [3]: 81% |
| CCCOC(Cn1c2c(c3cc(C)ccc31)CN(C)CC2)c1ccncc1 (single isomer, unassigned) [42a] | 3310 nM | 636 nM | 2.3 nM | 74% | 89% | 97% | – |
| Cc1ccc2c(c1)c1c(n2C[C@@H](OC2CCCC2)c2ccncc2)CCN2CCC[C@H]12 [compound 82, (11cR)-7-[(25)-2-(cyclopentoxy)-2-(4-pyridyl)ethyl]-10-methyl-1,2,3,5,6,11c-hexahydroindolizino[7,8-b]indole] | 675 nM | 382 nM | 1.59 nM | 98% | 99% | – | – |
| OC(Cn1c2c(c3cc(F)ccc31)C1CCCN1CC2)c1ccncc1 (single isomer, unassigned) [18b] | 2780 nM | 357 nM | 1.03 nM | 94% | 97% | 100% | inhibition at 0.1 µM [1]: 14%; inhibition at 0.3 µM [1]: 18%; inhibition at 0.1 µM [2, 4]: 19%; inhibition at 0.3 µM ([2]; 0.3 μM compound, nor-epinephrine at EC80 (50 nM), read-out: Percentage inhibition, Adrenergic α1B): 46%; inhibition at 30 pM ([3]; 0.03 nM compound, concentration series, read-out: Percentage inhibition of ligand binding, Adrenergic α2B, 0.03 nM): 19%; inhibition at 0.0001 µM ([3]; 0.1 nM compound, concentration series, read-out: Percentage inhibition of ligand binding, Adrenergic α2B, 0.1 nM): 6%; inhibition at 0.00032 µM ([3]; 0.32 nM compound, concentration series, read-out: Percentage inhibition of ligand binding, Adrenergic α2B, 0.32 nM): 14%; inhibition at 0.001 µM ([3]; 1 nM compound, concentration series, read-out: Percentage inhibition of ligand binding, Adrenergic α2B, 1 nM): 29%; inhibition at 0.0032 µM ([3]; 3.2 nM compound, concentration series, read-out: Percentage inhibition of ligand binding, Adrenergic α2B, 3.2 nM): 78% |
| Cc1cc(Cl)c2c(c1)c1c(n2CC(C)(O)c2ccncc2)CCN2CCCC12 (single isomer, unassigned) [91a] | 865 nM | 213 nM | 0.7 nM | 93% | 95% | – | – |
| Cc1ccc2c(c1)c1c(n2CC(C)(O)c2ccnc(F)c2)CCN2CCCC12 (single isomer, unassigned) [48a] | 1110 nM | 45 nM | 1.25 nM | 93% | 94% | 94% | – |
| Cc1cc(C)c2c(c1)c1c(n2CC(C)(O)c2ccncc2)CCN2CCCC12 (single isomer, unassigned) [19a] | 1260 nM | 107 nM | 1 nM | 94% | 99% | 100% | inhibition at 0.1 µM [1]: 13%; inhibition at 0.3 µM [1]: 23%; inhibition at 0.1 µM [2, 4]: 45%; Percentage inhibition, Adrenergic α1B ([2]; 0.3 μM compound, nor-epinephrine at EC80 (50 nM)): 74%; inhibition at 32 pM ([3]; 0.032 nM compound, concentration series, read-out: Percentage inhibition of ligand binding, Adrenergic α2B, 0.032 nM): 3%; Percentage inhibition of ligand binding, Adrenergic α2B, 0.1 nM ([3]; 0.1 nM compound, concentration series, 0.0001 µM): 8%; Percentage inhibition of ligand binding, Adrenergic α2B, 0.32 nM ([3]; 0.32 nM compound, concentration series, 0.00032 µM): 9%; Percentage inhibition of ligand binding, Adrenergic α2B, 1 nM ([3]; 1 nM compound, concentration series, 0.001 µM): 18%; Percentage inhibition of ligand binding, Adrenergic α2B, 3.2 nM ([3]; 3.2 nM compound, concentration series, 0.0032 µM): 64%; inhibition at 0.032 µM ([3]; 0.032 μM compound, concentration series, read-out: Percentage inhibition of ligand binding, Adrenergic α2B, 0.032 μM): 99% |
| Cc1ccc2c(c1)c1c(n2CC(O)c2ccncc2)CCN2CCCC12 (single isomer, unassigned) [Compound No. 178d] | – | – | – | – | 97% | – | Percentage inhibition of ligand binding, Adrenergic α2B (30 nM) [3]: 104% |
| Cc1cc(F)c2c(c1)c1c(n2CC(O)c2ccncc2)CCN2CCCC12 (single isomer, unassigned) [137a] | 5100 nM | 114 nM | 1.5 nM | – | 96% | – | Percentage inhibition of ligand binding, Adrenergic α2B (10 nM) [3]: 83% |
| OC(Cn1c2c(c3cc(Cl)cc(F)c31)C1CCCN1CC2)c1ccncc1 (single isomer, unassigned) [135b] | 295 nM | 102 nM | 0.69 nM | – | – | – | Percentage inhibition of ligand binding, Adrenergic α2B (10 nM) [3]: 84%; Percentage inhibition of ligand binding, Adrenergic α2B (30 nM) [3]: 83% |
| Cc1ccc2c(c1)c1c(n2CC(C)(O)c2ccc(F)nc2)CCN2CCCC12 (single isomer, unassigned) [6a] | 1790 nM | 121 nM | 1.4 nM | – | – | – | – |
| Cc1cc(F)cc2c3c(n(CC(O)c4ccncc4)c12)CCN1CCCC31 (single isomer, unassigned) [136a] | 896 nM | – | 1.5 nM | 91% | 95% | – | – |
| Cc1cc(F)c2c(c1)c1c(n2CC(C)(O)c2cccnc2)CCN2CCCC12 (single isomer, unassigned) [79b] | 2670 nM | – | 1.55 nM | 86% | 95% | 97% | – |
| Cc1cc(F)c2c(c1)c1c(n2CC(C)(O)c2cccnc2)CCN2CCCC12 (centres unmarked) [Compound No. 79a] | 678 nM | – | 0.77 nM | – | – | 97% | Percentage inhibition of ligand binding, Adrenergic α2B (30 nM) [3]: 96% |
